In brackets after ≈: the same amount, converted by molar mass. Where two headings read alike, the source gives them in different places. Marks after values point to notes of the source that are not given here. Where no end group is shown, it is not given here.
Legend:
S. agalactiae CIT 67 = assay: Broth MIC assay; type: cell-based, Streptococcus agalactiae; conditions: for MIC: Streptococcus agalactiae, CIT67, broth microdilution in TSBYE, 10^5 CFU/mL, 16 h, 37 °C, average of three independent biological repeats, read-out: MIC
Description: (§1) MIC determinations were carried out in triplicate in 96-well microtiter plates (Sarstedt, Newton, NC, USA) as previously described. Initially, 200µL of 1% bovine serum albumin (BSA) (Sigma-Aldrich, St. Louis, MO, USA) (in PBS) was added to the plates which were incubated at 37 °C for 30 min. The solution was removed, plates were washed with 200 µL PBS and then air dried in a laminar flow hood. Target strains (Streptococcus agalactiae, Staphylococcus capitis and Lactococcus lactis) were grown overnight in suitable media under appropriate conditions and were subsequently sub-cultured into fresh broth and allowed to grow to an optical density of ~0.5 (OD600). The culture was then diluted to a final concentration of 10^5 CFU mL^−1 in a volume of 1 mL. The peptides were resuspended in appropriate media to a stock concentration of […] (S. agalactiae and S. capitis strains) and […] (L. lactis strains). Nisin A and nisin derivatives were adjusted to a starting concentration of 15 µM (S. agalactiae and S. capitis strains) or 5 µM (L. lactis strains). […] An aliquot of 100 µL of peptides and or antibiotics were added to the first well, mixed and then 2-fold serial dilutions of each peptide were made in TSBYE broth. Then, 100 µL of target strain was added to each test well, and the plates were incubated at 30 °C or 37 °C for 16 h. The MIC was read as the lowest peptide concentration causing inhibition of visible growth. Experiments were performed in triplicate.

[1] = tested on: clinical isolates of S. agalactiae (n = 5) and S. capitis (n = 5); assay: Deferred antagonism agar-based assay; type: cell-based, Streptococcus agalactiae, Staphylococcus capitis; conditions: pathogenic indicators, n = 10
Description: All plates were supplemented with sub-inhibitory concentration (10 µg/L) of nisin in the form of nisaplin to ensure induction of the nisin mutants.
Site-saturation mutagenesis of three codons, including threonine, lysine and methionine, at positions 2, 12 and 17 of the nisA gene, was carried out as described previously. Briefly, pDF23 (pCI372-PV) was used as a template and oligonucleotides, NisT2deg-FOR and REV, NisK12deg-FOR and REV and Nis17deg-FOR and REV, containing an NNK codon potentially encoding for all twenty standard amino acids. Deferred antagonism agar-based assays were employed to assess the bioactivity of the nisin derivatives (PV, K12X-PV, T2X-PV, and M17X-PV) produced by each strain. Briefly, fresh overnight cultures of each L. lactis test culture was replicated on GM17/TSBYE agar plates containing 0.1% nisaplin using a 96-pin replicator (Boekel, Feasterville, PA, USA) and incubated overnight at 30 °C before being exposed to ultraviolet radiation for 45 min. The plates were then overlayed with GM17/TYSBYE agar (0.75% agar) and seeded (0.5% inoculum) with either Lactococcus lactis MG1614 (NSR-), the nisin resistance protein-expressing indicator strain L. lactis MG1614 pNP40 (NSR+) or TSBYE agar seeded with Staphylococcus capitis (NSR+) or Streptococcus agalactiae (NSR+) isolates. […]

S. capitis AY41 = assay: microbe, parasite or virus in culture; type: cell-based, Staphylococcus capitis; conditions: for MIC: 16 h
Description: as §1

S. agalactiae strains = assay: Broth MIC assay, summary over isolates; type: cell-based, Streptococcus agalactiae; conditions: Streptococcus agalactiae, read-out: MIC values over S. agalactiae strains, span over the isolates the sentence refers to (three, four or all five)
Description: as §1

S. capitis AV80 = assay: Broth MIC assay; type: cell-based; conditions: Staphylococcus capitis, AV80; broth microdilution in TSBYE, 10^5 CFU/mL, 16 h, 37 °C; average of three independent biological repeats; read-out: MIC
Description: as §1

S. capitis AR18 = assay: Broth MIC assay; type: cell-based; conditions: Staphylococcus capitis, AR18; broth microdilution in TSBYE, 10^5 CFU/mL, 16 h, 37 °C; average of three independent biological repeats; read-out: MIC
Description: as §1

S. capitis BD01 = assay: Broth MIC assay; type: cell-based, Staphylococcus capitis; conditions: Staphylococcus capitis, BD01; broth microdilution in TSBYE, 10^5 CFU/mL, 16 h, 37 °C; average of three independent biological repeats; read-out: MIC
Description: as §1

S. capitis BA06 = assay: Broth MIC assay; type: cell-based, Staphylococcus capitis; conditions: Staphylococcus capitis, BA06; broth microdilution in TSBYE, 10^5 CFU/mL, 16 h, 37 °C; average of three independent biological repeats; read-out: MIC
Description: as §1

S. agalactiae CIT 85 = assay: Broth MIC assay; type: cell-based, Streptococcus agalactiae; conditions: Streptococcus agalactiae
Description: as §1

S. agalactiae CIT 87 = assay: Broth MIC assay; type: cell-based, Streptococcus agalactiae; conditions: Streptococcus agalactiae, CIT87; broth microdilution in TSBYE, 10^5 CFU/mL, 16 h, 37 °C; average of three independent biological repeats; read-out: MIC
Description: as §1

S. agalactiae CIT 364 = assay: Broth MIC assay; type: cell-based, Streptococcus agalactiae; conditions: Streptococcus agalactiae, CIT364; broth microdilution in TSBYE, 10^5 CFU/mL, 16 h, 37 °C; average of three independent biological repeats; read-out: MIC
Description: as §1

S. agalactiae CIT 239 = assay: Broth MIC assay; type: cell-based, Streptococcus agalactiae; conditions: Streptococcus agalactiae
Description: as §1

[2] = cited from earlier work
From the text: NSR degrades nisin by cleaving the pept ...

S. capitis strains = assay: Broth MIC assay, summary over isolates; type: cell-based, Staphylococcus capitis; conditions: Staphylococcus capitis; span over the isolates the sentence refers to (four or all five)
Description: as §1, with “Then, 100 µL of target strain was added to each test well, and the plates were incubated at 30 °C or 37 °C for 16 h.” left out, “Experiments were performed in triplicate.” left out

[3] = Staphylococcus capitis, AY41, broth microdilution in TSBYE, 10^5 CFU/mL, 37 °C, average of three independent biological repeats, read-out: MIC

Compound | MIC (S. capitis AV80) | MIC (S. capitis AR18) | MIC (S. capitis BD01) | MIC (S. capitis BA06) | MIC (S. agalactiae CIT 87) | MIC (S. agalactiae CIT 67) | MIC (S. agalactiae CIT 364) | MIC (S. capitis AY41; [3]) | further results
C=C(NC(=O)[C@@H](NC(=O)[C@H](Cc1c[nH]cn1)NC(=O)[C@@H](NC(=O)[C@@H]1CCCN1C(=O)[C@@H]1CS[C@@H](C)[C@H]2NC(=O)[C@H](C)NC(=O)[C@H](NC(=O)[C@H](CCCCN)NC(=O)[C@H](CCSC)NC(=O)[C@H](CC(N)=O)NC(=O)[C@@H]3CS[C@@H](C)[C@@H](NC(=O)[C@H](CCCCN)NC(=O)[C@@H]4CS[C@@H](C)[C@@H](NC(=O)[C@@H]5CSC[C@@H](NC(=O)[C@H](C)NC(=O)[C@@H](N)[C@@H](C)CC)C(=O)N[C@@H]([C@@H](C)CC)C(=O)NC(=C)C(=O)N[C@@H](CC(C)C)C(=O)N5)C(=O)N5CCC[C@H]5C(=O)NCC(=O)N4)C(=O)NCC(=O)N[C@@H](C)C(=O)N[C@@H](CC(C)C)C(=O)N[C@@H](CCSC)C(=O)NCC(=O)N3)[C@H](C)SC[C@H](NC2=O)C(=O)N[C@@H](Cc2c[nH]cn2)C(=O)N1)C(C)C)C(C)C)C(=O)N[C@@H](CCCCN)C(=O)O [T2A-PV] |  |  |  |  |  |  |  |  | fold decrease in specific activity compared to nisin A (S. agalactiae CIT 67; from MIC): 2 fold; fold decrease in specific activity compared to nisin PV (S. agalactiae CIT 67; from MIC): 4 fold; bioactivity (zone of inhibition) of the producing strain [1]: not apparent against the pathogenic isolates; MIC (S. capitis AY41): 12.5 * µg/mL; fold decrease in potency compared to nisin PV (S. capitis AY41; from MIC): 2 fold; fold increase in potency compared to nisin A (S. capitis AY41; from MIC): 2 fold
CC[C@H]1OC(=O)[C@H](C)[C@@H](O[C@H]2C[C@@](C)(OC)[C@@H](O)[C@H](C)O2)[C@H](C)[C@@H](O[C@@H]2O[C@H](C)C[C@H](N(C)C)[C@H]2O)[C@](C)(O)C[C@@H](C)C(=O)[C@H](C)[C@@H](O)[C@]1(C)O [Erythromycin, erythromycin] | 12.5 µg/mL (≈ 17 µM) | 0.097 µg/mL (≈ 0.132 µM) | 6.25 µg/mL (≈ 8.52 µM) | 12.5 µg/mL (≈ 17 µM) | 0.39 µg/mL (≈ 0.531 µM) | 1 µg/mL (≈ 1.36 µM) | 0.78 µg/mL (≈ 1.06 µM) | 0.195 µg/mL (≈ 0.266 µM) | MIC (S. agalactiae strains): 0.78 to 3.13 µg/mL (≈ 1.06 to 4.26 µM); MIC (S. agalactiae CIT 85; CIT85, 16 h): 3.13 µg/mL (≈ 4.26 µM); MIC (S. agalactiae CIT 239; CIT239, 16 h): 1.56 µg/mL (≈ 2.13 µM)
nisin 1–28: truncated nisin structure left after NSR cleavage (ITSISLCTPGCKTGALMGCNMKTATCHC; ends and bridges not checked; also: lantibiotic thioether rings (Lan/MeLan) and dehydro residues, places not given here; UniProt P13068 24-51, looked up, fragment) |  |  |  |  |  |  |  |  | decrease in antimicrobial activity compared to nisin [2]: up to 100 fold
CNC(C)C1CCC(N)C(OC2C(N)CC(N)C(OC3OCC(C)(O)C(NC)C3O)C2O)O1 (centres unmarked) [Gentamicin, gentamicin] | > 50 µg/mL | > 50 µg/mL | > 50 µg/mL | > 50 µg/mL | 25 µg/mL (≈ 52.3 µM) | 25 µg/mL (≈ 52.3 µM) | 25 µg/mL (≈ 52.3 µM) | 0.39 µg/mL (≈ 0.817 µM) | MIC (S. agalactiae CIT 85; CIT85, broth microdilution in TSBYE, 10^5 CFU/mL, 16 h, 37 °C, average of three independent biological repeats, read-out: MIC): 6.25 µg/mL (≈ 13.1 µM); MIC (S. agalactiae CIT 239; CIT239, broth microdilution in TSBYE, 10^5 CFU/mL, 16 h, 37 °C, average of three independent biological repeats, read-out: MIC): 25 µg/mL (≈ 52.3 µM); MIC (S. capitis strains): > 50 µg/mL
